Reference: patent publication US20260209777A1, “TARGETING GLYCOSYLPHOSPHATIDYLINOSITOL (GPI) PATHWAY PROTEINS TO TREAT OVARIAN CANCER” (UNIVERSITY OF MASSACHUSETTS, priority 2023, published 2026)

Experiments:
Format in all cases: cell-based, human
SKOV3 cells = experiment: In vitro phagocytosis assay of SKOV3 cells by PBMC-derived M2 macrophages; conditions: bestatin 20 μM, tosedostat 20 μM, vs DMSO
normal B cells = experiment: In vitro phagocytosis assay of normal B cells by PBMC-derived M2 macrophages; conditions: for phagocytosis of B cells: bestatin 20 μM, tosedostat 10 μM vs DMSO, anti-CD24 antibody (clone SN3) vs IgG (FIG. 9B); for selectivity, CD24+ ovarian cancer cells relative to normal CD24+ B cells: comparison of FIG. 9B and 9C
Text: Macrophage Generation and Stimulation: Primary human donor-derived macrophages were generated as described previously (Martinez, Curr Protocol Immunol 2012, Chapter 14:14.28.1-14.28.23). In brief, Leukopaks from anonymous donors were obtained from the Rhode Island Blood (Providence, RI) and peripheral blood […] (PBMCs) were isolated by density gradients centrifugation using Ficoll Paque Plus (Sigma-Aldrich, Cat #17-1440-02) followed by RBC lysis using RBC lysis buffer (eBioscience, Cat #00-4333-57). For monocyte isolation, PBMCs were incubated in Monocyte Attachment Medium (Sigma-Aldrich, Cat #C-28051) for 1 hour at 37° C. and 5% CO2 and then washed three times in Iscove's Modified Dulbecco's Medium (IMDM) (Gibco, Cat #12440053) to remove non-adherent cells. The remaining monocytes were detached and seeded in 96-well plates and cultured at 37° C. and 5% CO2 in IMDM supplemented with 10% FBS (Atlanta Biologicals, Cat #S11550) and 20 ng/ml recombinant human M-CSF (Peprotech, Cat #AF-300-25). After 4 days monocytes were then treated with 20 ng/ml recombinant human IL-4 (Peprotech, Cat #200-04) and 10 ng/mL recombinant human IL-10 (PeproTech, Cat #200-10) for another 3-4 days to obtain M2 polarized macrophages. Macrophage differentiation was confirmed morphologically using microscopy. M2-macrophage polarization was confirmed by immunophenotyping of the M2 marker CD206 using PE-conjugated anti-human anti-CD206 antibody (BioLegend, Cat #321106, clone 15-2, 1:100 dilution). Primary B-cell Isolation and Culture: Pan B cells were isolated by negative selection from PBMCs isolated from Leukopaks (as described above) using a MojoSort Human Pan B Cell Isolation Kit (BioLegend, Cat #480081) according to the manufacturer's instructions. The purity of B cells was confirmed to be >95% by flow cytometry using a FITC anti-human CD19 antibody (BioLegend, Cat #302205, clone HIB19). B cells were cultured in RPMI 1640 medium supplemented with 5% human serum (Sigma-Aldrich, Cat #H6914), MEM non-essential amino acids solution (Gibco, Cat #1140050), and recombinant human IL-2 (50 ng/ml) (PeproTech, Cat #200-02) and IL-4 (10 ng/ml) (PeproTech, Cat #200-04). In vitro Phagocytosis Assays: To facilitate the quantification of phagocytic events, we adapted a microscopy-based fluorescence phagocytosis […] al., J Immunol Methods 2009, 342(1-2):71-7; Lindner et al., Biotechniques 2020, 68(5):245-250) for use with a Celigo imaging cytometer. […] Phagocytic events were quantified by counting the number of red fluorescent (pHrodo+) cells per well using a Celigo Imaging Cytometer (Nexcelom). […]

[1] = test system: CD24 cell surface expression in OVCAR8 cells; experiment: CD24 flow cytometry analysis in OVCAR8 cells; conditions: for CD24 cell surface expression (MFI): OVCAR8, 3 days, bestatin 10 or 20 μM, tosedostat 5 or 10 μM, ARM1 1 or 2 μM, vs DMSO
Experimental: Flow Cytometry Analysis: For cell surface protein staining, 1×10^5-1×10^6 cells were first incubated with Fc receptor blocking solution, Human TruStain FcXTM (BioLegend, Cat #422301) for 10 minutes at room temperature. Cells were washed once in FACS buffer (1×PBS, 1.0% bovine serum albumin (BSA) (Sigma) and 0.2% sodium azide (Sigma), and then incubated with antibodies (given below) for 30 minutes at 4° C. in the dark. Cells were also stained with 7-AAD (Biolegend, Cat #420404) for dead cell exclusion, and flow cytometry analysis was performed using a Bio-Rad ZE5 Cell Analyzer. Following antibodies used in this study (all antibodies were used at 1:50 dilution unless otherwise noted): APC anti-human CD24 (BioLegend, Cat #311118, clone ML5), PE anti-human CD24 (eBioscience, Cat #12-0247-42, clone SN3), APC anti-human CD47 (BioLegend, Cat #323124, clone CC2C6), APC anti-human § 2-microglobulin (BioLegend, Cat #395711, clone […]), PE anti-human HLA-A2 (MHC-class I) (BioLegend, Cat #343305, clone BB7.2), APC anti-human CD11b (BioLegend, Cat #982604, clone ICRF44), APC anti-mouse F4/80 antibody (BioLegend, Cat #123116, clone BM8), APC-streptavidin (Thermo Fisher Scientific, Cat #SA1005, 1:100 dilution), PE anti-Calreticulin (Invitrogen, Catalog #MA5-15382, 1:200 dilution). For intracellular staining, cells were fixed with 1% paraformaldehyde for 5 min and permeabilized using the True-Nuclear Transcription Factor Buffer Set (BioLegend, Cat #424401) before the addition of the antibody. Small Molecule Inhibitor and Drug Treatments: OVCAR8 or SKOV3 cells were treated for 3 days with bestatin (Ubenimex) (SelleckChem, Cat #S1591) at 5, 10 or 20 μM (as indicated in the figure legends), Tosedostat (Medchem Express, Cat #HY-14807) at 5 μM or 10 μM (as indicated in the figure legends) or ARM-1 (Medchem Express, Cat #HY-W027340) at 1, or 2 μM (as indicated in the figure legends). Inhibitors were replenished every 24 hours. DMSO (Sigma Aldrich, Cat #D8418) was used as a vehicle. OVCAR8 cells were treated with Docetaxel (SelleckChem, Cat #S1148) at 100 nM or Carboplatin (SelleckChem, Cat #S1215 at 100 nM or Doxorubicin (SelleckChem, Cat #E2516) at 50 nM for 12 hours.

CC(C)C[C@H](NC(=O)[C@@H](O)[C@H](N)Cc1ccccc1)C(=O)O [bestatin]
macrophage-mediated phagocytosis (SKOV3 cells): substantially increased
phagocytosis of B cells (normal B cells): did not undergo phagocytosis
selectivity, CD24+ ovarian cancer cells relative to normal CD24+ B cells (normal B cells): selectivity toward CD24+ ovarian cancer cells relative to normal CD24+ B cells
total CD24 levels following permeabilization of cells ([1]; OVCAR8, 20 μM bestatin, permeabilized (FIG. 6E)): no significant effect
CD24 cell surface expression (MFI) [1]: reduced CD24 cell surface expression in a dose-dependent manner
ability to decrease CD24 cell surface expression after knockdown of PEPT1 or PEPT2 ([1]; OVCAR8 expressing PEPT1 or PEPT2 shRNA, 20 μM bestatin (FIG. 7C)): abrogated

CC(C)C[C@@H](C(=O)N[C@H](C(=O)OC1CCCC1)c1ccccc1)[C@H](O)C(=O)NO [tosedostat]
macrophage-mediated phagocytosis (SKOV3 cells): increased
phagocytosis of B cells (normal B cells): did not undergo phagocytosis
selectivity, CD24+ ovarian cancer cells relative to normal CD24+ B cells (normal B cells): selectivity toward CD24+ ovarian cancer cells relative to normal CD24+ B cells
CD24 cell surface expression (MFI) [1]: reduced
